Laboratory results taken from patent US12018011B2, “Macrocyclic compounds and compositions, and methods of preparing and using the same” (Kura Oncology, Inc., priority 2021, dated 2024).

Key:
[1] = molecular target: T1, Recombinant human farnesyl transferase (FTase) (Homo sapiens, UniProt P49356); assay: FTase fluorescence assay (farnesylation of dansyl-GCVLS peptide); type: biochemical; settings: recombinant human FTase 2.5 nM, Dansyl-GCVLS 85 nM, FPP 30 nM, 30° C., 50 minutes
T1 construct: purchased Crelux (Martinsried, Germany)

[2] = test system: T24/83 cells; assay: T24/83 cell proliferation assay (CellTiter-Glo); type: cell-based; settings: Homo sapiens, 96 h, 4 days
Text: T24/83 cell line was purchased from the European Collection of Authenticated Cell Cultures (Salisbury, UK). Recombinant human farnesyl transferase (FTase) and geranylgeranyl transferase type-1 (GGTase) were obtained from Crelux (Martinsried, Germany). Dansyl labelled GCVLS peptide was purchased from Bachem (Torrance, CA), and Dansyl labelled GCVLL peptide was purchased from Bio Synthesis (Lewisville, TX). Farnesyl Pyrophosphate (FPP) and Geranylgeranyl pyrophosphate (GGPP) were purchased from Cayman (Ann Arbor, MI).
Mutant oncogenic HRAS was originally identified in a human bladder carcinoma cell line called T24. T24/83 is a subline of T24 established more recently that has more favorable growth characteristics for in vitro assays. Thus, T24/83 is a well-characterized mutant HRAS-dependent cell line that is an ideal model for quantifying the HRAS-dependent antitumor activity of farnesyltransferase inhibitors.
T24/83 cells were inoculated into 384 well plates at 100 cells/well, and grown in the presence of inhibitor, 0.7% DMSO as a negative control, or 100 μM tipifarnib as a positive control, at 37° C. for 4 days. Cell viability was assessed using the CellTiter-Glo Kit (CTG) (Promega; Madison, WI). Luminescence was recorded using EnVision microplate reader (PerkinElmer; Waltham, MA). In this assay, tipifarmib was used as a positive control. All the assay plates passed the QC criteria (S/B, Z-factor).

Structure (SMILES) | IC50 [1] | IC50 [2]
Cn1cncc1C1(O)c2cccc(c2)OCc2cccc(c2)-c2cc(=O)n(C)c3ccc1cc23 (stereo not shown) [Compound 11, 3-hydroxy-2^1-methyl-3-(1-methyl-1H-imidazol-5-yl)-2^1,2^2-dihydro-5-oxa-2(4,6)-quinolina-1,4(1,3)-dibenzenacyclohexaphan-2^2-one] | ≤ 10 nM | > 500 nM
Cn1cncc1[C@@]1(N)c2ccc(C#N)c(c2)COc2cccc(c2)-c2cc(=O)n(CC(O)CO)c3ccc1cc23 (stereo partly drawn) [(S)-69, (3S)-3-amino-2^1-(2,3-dihydroxypropyl)-3-(1-methyl-1H-imidazol-5-yl)-2^2-oxo-2^1,2^2-dihydro-6-oxa-2(4,6)-quinolina-1,4(1,3)-dibenzenacyclohexaphane-4^4-carbonitrile] | ≤ 10 nM | > 500 nM
Cn1cncc1C1(O)c2ccc(Cl)c(c2)OCc2cccc(c2)-c2cc(=O)[nH]c3ccc1cc23 (stereo not shown) [Compound 13, 4^4-chloro-3-hydroxy-3-(1-methyl-1H-imidazol-5-yl)-2^1,2^2-dihydro-5-oxa-2(4,6)-quinolina-1,4(1,3)-dibenzenacyclohexaphan-2^2-one] | 10 to 100 nM | 50 to 500 nM
Cn1cncc1C1(O)c2cccc(c2)CCc2cccc(c2)-c2cc(=O)n(C)c3ccc1cc23 (stereo not shown) [Compound 2, 3-hydroxy-2^1-methyl-3-(1-methyl-1H-imidazol-5-yl)-2^1,2^2-dihydro-2(4,6)-quinolina-1,4(1,3)-dibenzenacyclohexaphan-2^2-one] | 10 to 100 nM | 50 to 500 nM
COc1cc2c3cc(ccc3n1)C(O)(c1cncn1C)c1cccc(c1)OCc1cccc-2c1 (stereo not shown) [Compound 10, 2^2-methoxy-3-(1-methyl-1H-imidazol-5-yl)-5-oxa-2(4,6)-quinolina-1,4(1,3)-dibenzenacyclohexaphan-3-ol] | > 100 nM | –
Cn1cncc1[C@]1(N)c2ccc(C#N)c(c2)COc2cccc(c2)-c2cc(C#N)nc3ccc1cc23 (racemic) [(R)-58, (R)-3-amino-3-(1-methyl-1H-imidazol-5-yl)-6-oxa-2(4,6)-quinolina-1,4(1,3)-dibenzenacyclohexaphane-2^2,4^4-dicarbonitrile] | 10 to 100 nM | –
[2H]C([2H])([2H])n1c(=O)cc2c3cc(ccc31)[C@@H](n1ncnc1C)c1ccc(Cl)c(c1)COc1cccc-2c1 [(R)-079, (R)-4^4-chloro-2^1-(methyl-d3)-3-(5-methyl-1H-1,2,4-triazol-1-yl)-2^1,2^2-dihydro-6-oxa-2(4,6)-quinolina-1,4(1,3)-dibenzenacyclohexaphan-2^2-one] | 10 to 100 nM | –
[2H]C([2H])([2H])n1c(=O)cc2c3cc(ccc31)[C@](N)(c1cncn1C)c1ccc(C#N)c(c1)OCc1cccc-2c1 (racemic) [(R)-20, (R)-3-amino-2^1-(methyl-d3)-3-(1-methyl-1H-imidazol-5-yl)-2^2-oxo-2^1,2^2-dihydro-5-oxa-2(4,6)-quinolina-1,4(1,3)-dibenzenacyclohexaphane-4^4-carbonitrile] | > 100 nM | –
Cn1cncc1[C@]1(O)c2ccc(C#N)c(c2)OCc2cccc(c2)-c2cc(=O)n(C)c3ccc1cc23 (racemic) [(R)-18, (R)-3-hydroxy-2^1-methyl-3-(1-methyl-1H-imidazol-5-yl)-2^2-oxo-2^1,2^2-dihydro-5-oxa-2(4,6)-quinolina-1,4(1,3)-dibenzenacyclohexaphane-4^4-carbonitrile] | > 100 nM | –
Cn1cncc1[C@]1(N)c2ccc(Cl)c(c2)OCCc2cccc(c2)-c2cc(=O)n(C3CC3)c3ccc1cc23 (racemic) [(R)-30, (R)-3-amino-4^4-chloro-2^1-cyclopropyl-3-(1-methyl-1H-imidazol-5-yl)-2^1,2^2-dihydro-5-oxa-2(4,6)-quinolina-1,4(1,3)-dibenzenacycloheptaphan-2^2-one] | > 100 nM | –
[2H]C([2H])([2H])n1cncc1[C@@]1(N)c2ccc(C#N)c(c2)COc2cccc(c2)-c2cc(C#N)nc3ccc1cc23 [(S)-70, (S)-3-amino-3-(1-(methyl-d3)-1H-imidazol-5-yl)-6-oxa-2(4,6)-quinolina-1,4(1,3)-dibenzenacyclohexaphane-2^2 4^4-dicarbonitrile] | ≤ 10 nM | –
Cn1cncc1[C@]1(N)c2ccc(C#N)c(c2)OCCc2cccc(c2)-c2cc(=O)n(C)c3ccc1cc23 (racemic) [(R)-37, (R)-3-amino-2^1-methyl-3-(1-methyl-1H-imidazol-5-yl)-2^2-oxo-2^1,2^2-dihydro-5-oxa-2(4,6)-quinolina-1,4(1,3)-dibenzenacycloheptaphane-4^4-carbonitrile] | > 100 nM | –

Next, values leading:

IC50 [1] | IC50 [2] | Structure (SMILES)
10 to 100 nM | 50 to 500 nM | Cn1cncc1C1(O)c2cccc(c2)OCCc2cccc(c2)-c2cc(=O)[nH]c3ccc1cc23 (stereo not shown) [Compound 22, 3-hydroxy-3-(1-methyl-1H-imidazol-5-yl)-2^1,2^2-dihydro-5-oxa-2(4,6)-quinolina-1,4(1,3)-dibenzenacycloheptaphan-2^2-one]
10 to 100 nM | > 500 nM | COc1cc2c3cc(ccc3n1)C(O)(c1cncn1C)c1cnc(C#N)c(c1)COc1cccc-2c1 (stereo not shown) [Compound 60, 3-hydroxy-2^2-methoxy-3-(1-methyl-1H-imidazol-5-yl)-6-oxa-2(4,6)-quinolina-4(3,5)-pyridina-1(1,3)-benzenacyclohexaphane-4^6-carbonitrile]
> 100 nM | 50 to 500 nM | COc1cc2c3cc(ccc3n1)C(O)(c1cncn1C)c1cccc(c1)COc1cccc-2c1 (stereo not shown) [Compound 40, 2^2-methoxy-3-(1-methyl-1H-imidazol-5-yl)-6-oxa-2(4,6)-quinolina-1,4(1,3)-dibenzenacyclohexaphan-3-ol]
≤ 10 nM | 50 to 500 nM | Cn1cncc1C1(O)c2ccc(C#N)c(c2)COc2cccc(c2)-c2cc(C#N)nc3ccc1cc23 (stereo not shown) [Compound 72, 3-hydroxy-3-(1-methyl-1H-imidazol-5-yl)-6-oxa-2(4,6)-quinolina-1,4(1,3)-dibenzenacyclohexaphane-2^2 4^4-dicarbonitrile]
≤ 10 nM | > 500 nM | [2H]C([2H])([2H])n1c(=O)cc2c3cc(ccc31)C(N)(c1cncn1C)c1cnc(C#N)c(c1)COc1cccc-2c1 (stereo not shown) [Compound 62, 3-amino-2^1-(methyl-d3)-3-(1-methyl-1H-imidazol-5-yl)-2^2-oxo-2^1,2^2-dihydro-6-oxa-2(4,6)-quinolina-4(3,5)-pyridina-1(1,3)-benzenacyclohexaphane-4^6-carbonitrile]
≤ 10 nM | 50 to 500 nM | Cn1cncc1C1(O)c2ccc(Cl)c(c2)OCCc2cccc(c2)-c2cc(=O)[nH]c3ccc1cc23 (racemic) [Compound 25, (rac)-4^4-chloro-3-hydroxy-3-(1-methyl-1H-imidazol-5-yl)-2^1,2^2-dihydro-5-oxa-2(4,6)-quinolina-1,4(1,3)-dibenzenacycloheptaphan-2^2-one]
10 to 100 nM | 50 to 500 nM | Cn1cncc1C1(O)c2ccc(C#N)c(c2)COc2cccc(c2)-c2cc(C(N)=O)nc3ccc1cc23 (stereo not shown) [Compound 73, 4^4-cyano-3-hydroxy-3-(1-methyl-1H-imidazol-5-yl)-6-oxa-2(4,6)-quinolina-1,4(1,3)-dibenzenacyclohexaphane-2^2-carboxamide]
10 to 100 nM | 50 to 500 nM | Cn1cncc1C1(O)c2ccc(Cl)c(c2)OCCc2cccc(c2)-c2cc(=O)n(C)c3ccc1cc23 (stereo not shown) [Compound 26, 4^4-chloro-3-hydroxy-2^1-methyl-3-(1-methyl-1H-imidazol-5-yl)-2^1,2^2-dihydro-5-oxa-2(4,6)-quinolina-1,4(1,3)-dibenzenacycloheptaphan-2^2-one]
≤ 10 nM | 50 to 500 nM | [2H]C([2H])([2H])n1c(=O)cc2c3cc(ccc31)C(O)(c1cncn1C)c1cnc(C#N)c(c1)COc1cccc-2c1 (stereo not shown) [Compound 61, 3-hydroxy-2^1-(methyl-d3)-3-(1-methyl-1H-imidazol-5-yl)-2^2-oxo-2^1,2^2-dihydro-6-oxa-2(4,6)-quinolina-4(3,5)-pyridina-1(1,3)-benzenacyclohexaphane-4^6-carbonitrile]
≤ 10 nM | 50 to 500 nM | Cn1cncc1C1(O)c2ccc(Cl)c(c2)COc2cccc(c2)-c2cc(=O)[nH]c3ccc1cc23 (stereo not shown) [Compound 44, 4^4-chloro-3-hydroxy-3-(1-methyl-1H-imidazol-5-yl)-2^1,2^2-dihydro-6-oxa-2(4,6)-quinolina-1,4(1,3)-dibenzenacyclohexaphan-2^2-one]
≤ 10 nM | ≤ 50 nM | Cn1cncc1C1(O)c2cccc(c2)OCCc2cccc(c2)-c2cc(=O)n(C)c3ccc1cc23 (stereo not shown) [Compound 23, 3-hydroxy-2^1-methyl-3-(1-methyl-1H-imidazol-5-yl)-2^1,2^2-dihydro-5-oxa-2(4,6)-quinolina-1,4(1,3)-dibenzenacycloheptaphan-2^2-one]
10 to 100 nM | – | Cn1cncc1C1(N)c2ccc(Br)c(c2)COc2cccc(c2)-c2cc(Cl)nc3ccc1cc23 (stereo not shown) [Compound 74, 4^4-bromo-2^2-chloro-3-(1-methyl-1H-imidazol-5-yl)-6-oxa-2(4,6)-quinolina-1,4(1,3)-dibenzenacyclohexaphan-3-amine]
≤ 10 nM | – | COc1cc2c3cc(ccc3n1)C(O)(c1cncn1C)c1ccc(C#N)c(c1)COc1cccc-2c1 (stereo not shown) [Compound 53, 3-hydroxy-2^2-methoxy-3-(1-methyl-1H-imidazol-5-yl)-6-oxa-2(4,6)-quinolina-1,4(1,3)-dibenzenacyclohexaphane-4^4-carbonitrile]
